We go through four compounds from paper PMC8199245, “Serotonin Promotes Serum Albumin Interaction with the Monomeric Amyloid β Peptide” (International Journal of Molecular Sciences, 2021).

“Also recorded” adds a separate entry of the source.

Experiment [1] concerns HSA. As to conditions: cited from earlier work.
Experiment [2] deals with T1, HSA–monomeric Aβ40 (recombinant human Aβ40) (Homo sapiens, UniProt P02768). In words: SPR of HSA interaction with immobilized monomeric Aβ40, without/with SRO or TRP. The following applies: SPR 25 °C; for Kd: KD (apparent, HSA–Aβ40), KD × 10^7, i.e. value × 10^−7 M; for Kd / ka (effective, HSA–Aβ40) / kd (effective, HSA–Aβ40): pH 7.4, HSA 5–60 µM, mean ± SD; for ka (effective, HSA–Aβ40): ka × 10^−3, i.e. value × 10^3 M^−1s^−1; for kd (effective, HSA–Aβ40): kd × 10^4, i.e. value × 10^−4 s^−1. The protocol: (§1) The recombinant human Aβ40 or Aβ42 sample was immobilized on the surface of the SPR sensor chip by amine coupling, followed by removal from the surface of the non-covalently bound Aβ molecules by a 2% SDS water solution [12]. […] (5–60 µM) was used as an analyte.
(§2) Aβ40/Aβ42 was immobilized on the sensor chip’s surface by amine coupling.
(§3) Recombinant human Aβ40/Aβ42 samples were pretreated for SPR measurements mainly as described in [46]. The freeze-dried Aβ sample was dissolved in neat TFA at a concentration of 0.5–1 mg/mL. The solution was sonicated for 30 s. TFA was evaporated using Eppendorf Concentrator plus. The dried Aβ sample was dissolved in DMSO at a concentration of 2 mg/mL, and stored at −20 °C.
(§4) SPR measurements were performed at 25 °C using a Bio-Rad ProteOn™ XPR36 instrument mainly as previously described. Ligand (57 μg/mL recombinant human Aβ40/Aβ42 in 10 mM sodium acetate, pH 4.5 buffer) was immobilized on a ProteOn GLH sensor chip surface (up to 7000–9000 RUs) by amine coupling. The remaining activated amine groups on the chip surface were blocked by 1 M ethanolamine solution. The non-covalently bound Aβ40/Aβ42 molecules were washed from the chip surface with 2% SDS water solution until stabilization of the signal. […] The sensor chip surface was regenerated by passage of 10 mM EDTA pH 7.9 solution containing 2% SDS. […] The double-referenced SPR sensograms were globally fitted according to the one-site binding model using Bio-Rad ProteOn Manager™ v.3.1 software.

For experiment [3], the system named is HSA. In words: Glutaraldehyde crosslinking of HSA with SDS-PAGE. More on the design: species or system human. As to conditions: 1 mM ligand, HSA 36 µM, glutaraldehyde crosslinking, 37 °C; overall statements also rest on DLS.
The target of experiment [4] is T2, HSA–monomeric Aβ42 (recombinant human Aβ42) (Homo sapiens, UniProt P02768). Put plainly: SPR of HSA interaction with immobilized monomeric Aβ42, without/with SRO or TRP. The following applies: SPR 25 °C; for Kd: KD (apparent, HSA–Aβ42), KD × 10^7, i.e. value × 10^−7 M; for Kd / ka (effective, HSA–Aβ42) / kd (effective, HSA–Aβ42): pH 7.4, HSA 5–60 µM, mean ± SD; for ka (effective, HSA–Aβ42): ka × 10^−3, i.e. value × 10^3 M^−1s^−1; for kd (effective, HSA–Aβ42): kd × 10^4, i.e. value × 10^−4 s^−1. The method, then:
as §1, §2, §3, §4

Another experiment deals with Aβ42. The arrangement: method as in PMID 29131485. The following applies: cited from earlier work.
The test system of experiment [5] is HSA–monomeric Aβ. In words: SPR of HSA interaction with monomeric Aβ (isoform not given). The class given is binding, human. The following applies: general statement; SPR.
Experiment [6] concerns HSA-induced suppression of Aβ fibrillation. More on the design: method as in 2 sources, ref 5 = [5]; PMID 10347147; doi:10.1074/jbc.274.23.15990; 5. Bohrmann B. Tjernberg L. Kuner P. Poli S. Levet-Trafit B. Naslund J. Richards G. Huber W. Dobeli H. Nordstedt C. Endogenous proteins controlling amyloid beta-peptide polymerization. Possible implic ||| ref 14 = [14]; PMID 29409811; doi:10.1016/j.jmb.2018.01.008; 14. Bode D.C. Stanyon H.F. Hirani T. Baker M.D. Nield J. Viles J.H. Serum albumin’s protective inhibition of amyloid-β fiber formation is suppressed by cholesterol, fatty acids and warfarin J. Mol. Bi. The following applies: cited from earlier work.

The target in experiment [7] is T2, HSA–monomeric Aβ42 (recombinant human Aβ42). More on the design: method as in PMID 30685090. As to conditions: cited from earlier work.
The subject of experiment [8] is HSA–monomeric Aβ. The following applies: cited from earlier work. The source says: An alternative, less invasive approach to the lowering of the free Aβ level in the brain is a pharmacologically guided shift in the equilibrium between HSA and Aβ towards their complex. The latter possibility was recently confirmed by arachidonic/linoleic-aci ...
Experiment [9] has as its target T1, HSA–monomeric Aβ40 (recombinant human Aβ40). The arrangement: method as in PMID 30685090. The following applies: cited from earlier work.

T2 sequence (P05067 672-713): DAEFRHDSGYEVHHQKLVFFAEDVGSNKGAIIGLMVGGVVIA
T2 sequence (P02768 25-609): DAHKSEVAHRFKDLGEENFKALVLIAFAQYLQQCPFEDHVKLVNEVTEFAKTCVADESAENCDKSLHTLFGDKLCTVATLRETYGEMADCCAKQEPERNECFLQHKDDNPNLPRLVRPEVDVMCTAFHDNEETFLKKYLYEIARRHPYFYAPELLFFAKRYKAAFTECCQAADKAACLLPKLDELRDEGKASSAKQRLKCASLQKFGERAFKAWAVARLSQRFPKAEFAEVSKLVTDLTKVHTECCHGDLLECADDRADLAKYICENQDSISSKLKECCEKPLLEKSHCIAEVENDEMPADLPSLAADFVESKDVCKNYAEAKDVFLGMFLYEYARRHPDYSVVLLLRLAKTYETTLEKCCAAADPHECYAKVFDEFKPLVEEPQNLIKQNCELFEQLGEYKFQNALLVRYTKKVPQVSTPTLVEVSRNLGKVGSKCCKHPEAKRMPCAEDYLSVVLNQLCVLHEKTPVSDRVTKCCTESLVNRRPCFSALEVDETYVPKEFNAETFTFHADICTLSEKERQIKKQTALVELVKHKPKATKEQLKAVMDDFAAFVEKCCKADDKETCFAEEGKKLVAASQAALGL
T1 sequence (P05067 672-711): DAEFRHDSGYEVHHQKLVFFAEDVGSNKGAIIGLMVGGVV
T1 sequence (P02768 25-609): as the sequence (P02768 25-609) above

With `N[C@@H](Cc1c[nH]c2ccccc12)C(=O)O` [TRP, L-tryptophan], in the experiment on HSA [1], the “equilibrium association constant of TRP with HSA” value is 27000 M⁻¹. In addition, the “effect on HSA's apparent affinity to Aβ40” value in experiment [2] (1 mM ligand) is “did not affect HSA’s apparent affinity”. In experiment [2] (10 µM HSA ligand), the Kd turned out to be 80 ± 40 nM; the “ka (effective, HSA–Aβ40)” value was 0.7 ± 0.2 × 10^−3, M^−1s^−1; the “kd (effective, HSA–Aβ40)” value is on record as 0.49 ± 0.12 × 10^4, s^−1. Further, in experiment [2] (1 mM HSA ligand), the Kd is 70 ± 40 nM; the “ka (effective, HSA–Aβ40)” value is 0.6 ± 0.2 × 10^−3, M^−1s^−1; the “kd (effective, HSA–Aβ40)” value is 0.4 ± 0.2 × 10^4, s^−1. In addition, in experiment [2] (100 µM HSA ligand), the “ka (effective, HSA–Aβ40)” value is 0.47 ± 0.15 × 10^−3, M^−1s^−1 and the “kd (effective, HSA–Aβ40)” value is given as 0.53 ± 0.17 × 10^4, s^−1. Further, the “effect on quaternary structure of HSA” value in the experiment with HSA [3] is given as “did not affect the quaternary structure of HSA”. Besides, the “effect on kinetics of HSA–Aβ42 interaction” value in experiment [4] (1 mM TRP) is “slowdown of the association and dissociation processes”. The “effect on HSA's apparent affinity to Aβ42” value in experiment [4] (1 mM ligand) was “did not affect HSA’s apparent affinity”. Further, in experiment [4] (10 µM HSA ligand), the Kd is 60 ± 40 nM; the “ka (effective, HSA–Aβ42)” value is on record as 0.8 ± 0.4 × 10^−3, M^−1s^−1; the “kd (effective, HSA–Aβ42)” value was 0.4 ± 0.2 × 10^4, s^−1. Further, in experiment [4] (1 mM HSA ligand), the Kd was 60 ± 30 nM and the “ka (effective, HSA–Aβ42)” value is 0.29 ± 0.07 × 10^−3, M^−1s^−1. In addition, in experiment [4] (100 µM HSA ligand), the “ka (effective, HSA–Aβ42)” value is given as 0.5 ± 0.3 × 10^−3, M^−1s^−1 and the “kd (effective, HSA–Aβ42)” value was 0.7 ± 0.6 × 10^4, s^−1. Besides, in the experiment with Aβ42, the “inhibition of Aβ42 fibrillation compared with SRO” value is “markedly less effective; also recorded: much less efficient inhibition of Aβ42 fibrillation”. Also, in the experiment on HSA–monomeric Aβ [5], the “effect on HSA's affinity to monomeric Aβ / activation of HSA–Aβ interaction” value is “does not affect HSA’s affinity to monomeric Aβ; also recorded: did not affect HSA’s effective affinity for Aβ; also recorded: inactive”; the “effect on kinetics of HSA–Aβ interaction” value is “slowdown of the association and dissociation processes; also recorded: slowed their association and dissociation”.
For the compound `CC(=O)CC(c1ccccc1)c1c(O)c2ccccc2oc1=O` (stereo not shown) [warfarin], in experiment [6], the “effect on HSA-induced suppression of Aβ fibrillation” value is on record as “prevent HSA-induced suppression of Aβ fibrillation”.
On to `CC(C)CCC[C@@H](C)[C@H]1CC[C@H]2[C@@H]3CC=C4C[C@@H](O)CC[C@]4(C)[C@H]3CC[C@]12C` [cholesterol], for which, in experiment [6], the “effect on HSA-induced suppression of Aβ fibrillation” value is recorded as “prevent HSA-induced suppression of Aβ fibrillation”.
As to `CCCCC/C=C\C/C=C\C/C=C\C/C=C\CCCC(=O)O` [arachidonic acid], the “fold decrease in KD of HSA–monomeric Aβ42” value in experiment [7] was 3 fold. Besides, the “effect on HSA affinity to Aβ” value in the experiment with HSA–monomeric Aβ [8] was “enhancement of HSA affinity to Aβ”. Further, the “fold decrease in KD of HSA–monomeric Aβ40” value in experiment [9] was 3 fold.
